{"source": "paper PMC4476171", "about": "(Cardiovascular Diabetology, 2015)", "key": {"[1]": {"tested_on": "anesthetized male Sprague–Dawley rats", "experiment": "Renal excretory function: urine flow rate, urinary Na+, K+, Cl− excretion", "type": "in vivo, rat", "conditions": "anesthetized male SD rats, Figure 5", "experimental": "(§1) After one week of acclimation, SD rats (10–12 weeks old) were randomly divided into study groups. Rats were anesthetized with thiobutabarbital sodium (Inactin, 110 mg/kg, IP; Sigma-Aldrich, St. Louis, Missouri). Core temperature was maintained between 36 and 37°C throughout the study using a heating pad (Fine Science Tools Inc., Foster City, California). Polyethylene PE-50 tubing was inserted into the left femoral artery to permit intermittent blood sampling, and was also connected to a pressure transducer (NL108T2, Harvard Apparatus, Holliston, Massachusetts) for the measurement of blood pressure (BP) and heart rate (HR). […] Urine volumes were measured and urine was analyzed for electrolytes (Na^+, K^+, and Cl^−) and pH at multiple time points during the study. GFR and RBF were determined by inulin and PAH renal clearance at baseline and the end of the study. […]\n(§2) One group of animals received four successive infusions of saline. […] BP, HR, urinary Na^+, K^+, and Cl^− excretion were measured at baseline and at the end of each 20 minute infusion period. GFR and RBF were assessed at baseline and at the end of the last infusion period in each animal (Figure 1).\n(§3) Animals were randomized into 8 experimental groups (n = 6 - 8) (Table 1): Group 1. […] Parameters measured are the same as described in Protocol 1 (Figure 2). […]"}, "[2]": {"tested_on": "anesthetized male Sprague–Dawley rats", "experiment": "Renal blood flow by para-aminohippurate clearance", "type": "in vivo, rat", "conditions": "anesthetized male SD rats", "experimental": "as §1, §2, §3"}, "[3]": {"experiment": "Plasma concentration of active GLP-1 (ELISA)", "type": "in vivo, rat", "conditions": "anesthetized male SD rats", "experimental": "as §1, with “(HR). The signal from the pressure transducer was transmitted to a Ponemah data acquisition system (Data Science International, St. Paul, Minnesota). The left femoral vein was cannulated with PE-50 tubing for solution administration and compound delivery, respectively. The bladder was catheterized with PE-100 tubing to allow timed collections of urine.” for “(HR).”\nNa^+, K^+, and Cl^− concentrations in plasma and urine were measured by a Roche Modular Chemistry System (Roche Diagnostics, Indianapolis, Indiana). Hematocrit was determined using a HESKA I-STAT Hematology Analyzer (HESKA, Fribourg, Switzerland). Urine pH was measured by a pH meter (Fisher Scientific, Pittsburgh, Pennsylvania). Inulin and PAH concentrations in plasma and urine were determined by colorimetric assays. […] Plasma DPP4 activity was measured using a continuous fluorometric assay with the substrate Gly-Pro-AMC, which is cleaved by DPP4 to release the fluorescent AMC leaving group."}, "[4]": {"tested_on": "anesthetized male Sprague–Dawley rats", "experiment": "Glomerular filtration rate by inulin clearance", "type": "in vivo, rat", "conditions": "anesthetized male SD rats", "experimental": "as §1, §2, §3"}, "[5]": {"tested_on": "anesthetized male Sprague–Dawley rats", "experiment": "Plasma insulin", "type": "in vivo, rat", "conditions": "anesthetized male SD rats, mean ± SE, n = 6-8", "experimental": "as §1, with “(HR). The signal from the pressure transducer was transmitted to a Ponemah data acquisition system (Data Science International, St. Paul, Minnesota). The left femoral vein was cannulated with PE-50 tubing for solution administration and compound delivery, respectively. The bladder was catheterized with PE-100 tubing to allow timed collections of urine.” for “(HR).”"}, "[6]": {"tested_on": "anesthetized male Sprague–Dawley rats", "experiment": "Heart rate recorded from indwelling femoral artery catheter", "type": "in vivo, rat", "conditions": "anesthetized male SD rats, mean ± SE, n = 6-8", "experimental": "as §1, §2\n(§4) Animals were randomized into 8 experimental groups (n = 6 - 8) (Table 1): Group 1. […] Parameters measured are the same as described in Protocol 1 (Figure 2)."}, "[7]": {"tested_on": "anesthetized male Sprague–Dawley rats", "experiment": "Plasma K+ concentration", "type": "in vivo, rat", "conditions": "anesthetized male SD rats, mean ± SE, n = 6-8", "experimental": "as §1\n(§5) Na^+, K^+, and Cl^− concentrations in plasma and urine were measured by a Roche Modular Chemistry System (Roche Diagnostics, Indianapolis, Indiana). Hematocrit was determined using a HESKA I-STAT Hematology Analyzer (HESKA, Fribourg, Switzerland). Urine pH was measured by a pH meter (Fisher Scientific, Pittsburgh, Pennsylvania). Inulin and PAH concentrations in plasma and urine were determined by colorimetric assays. […]"}, "[8]": {"tested_on": "anesthetized male Sprague–Dawley rats", "experiment": "Hematocrit", "type": "in vivo, rat", "conditions": "anesthetized male SD rats, mean ± SE, n = 6-8", "experimental": "as §1, §5"}, "[9]": {"tested_on": "anesthetized male Sprague–Dawley rats", "experiment": "Blood pressure recorded from indwelling femoral artery catheter", "type": "in vivo, rat", "conditions": "anesthetized male SD rats, mean ± SE, n = 6-8", "experimental": "as §1, §2, §4"}, "[10]": {"tested_on": "anesthetized male Sprague–Dawley rats", "experiment": "Plasma glucose", "type": "in vivo, rat", "conditions": "anesthetized male SD rats, mean ± SE, n = 6-8", "procedure": "After one week of acclimation, SD rats (10–12 weeks old) were randomly divided into study groups. Rats were anesthetized with thiobutabarbital sodium (Inactin, 110 mg/kg, IP; Sigma-Aldrich, St. Louis, Missouri). Core temperature was maintained between 36 and 37°C throughout the study using a heating pad (Fine Science Tools Inc., Foster City, California). Polyethylene PE-50 tubing was inserted into the left femoral artery to permit intermittent blood sampling, and was also connected to a pressure transducer (NL108T2, Harvard Apparatus, Holliston, Massachusetts) for the measurement of blood pressure (BP) and heart rate (HR). The signal from the pressure transducer was transmitted to a Ponemah data acquisition system (Data Science International, St. Paul, Minnesota). The left femoral vein was cannulated with PE-50 tubing for solution administration and compound delivery, respectively. […] In addition, 0.9% saline was infused via a Y shape adapter to the left femoral vein at a rate of 0.1 ml/100 g/h. Rats were allowed to stabilize for ~1 hour before initiation of the study. The experimental protocol was initiated with a 20-minute baseline urine collection, followed by administration of either vehicle or test compound at a rate of 0.1 ml/100 g/h for 60-minutes."}, "[11]": {"tested_on": "anesthetized male Sprague–Dawley rats", "experiment": "Urine pH", "type": "in vivo, rat", "conditions": "anesthetized male SD rats, mean ± SE, n = 6-8", "experimental": "as §1, §5"}, "DPP4": {"molecular_target": "T1, DPP4 (Rattus norvegicus, UniProt P14740)", "T1 construct": "from tissue; host or cells: plasma of Sprague-Dawley rats", "T1 sequence (P14740 37-767 limits assumed)": "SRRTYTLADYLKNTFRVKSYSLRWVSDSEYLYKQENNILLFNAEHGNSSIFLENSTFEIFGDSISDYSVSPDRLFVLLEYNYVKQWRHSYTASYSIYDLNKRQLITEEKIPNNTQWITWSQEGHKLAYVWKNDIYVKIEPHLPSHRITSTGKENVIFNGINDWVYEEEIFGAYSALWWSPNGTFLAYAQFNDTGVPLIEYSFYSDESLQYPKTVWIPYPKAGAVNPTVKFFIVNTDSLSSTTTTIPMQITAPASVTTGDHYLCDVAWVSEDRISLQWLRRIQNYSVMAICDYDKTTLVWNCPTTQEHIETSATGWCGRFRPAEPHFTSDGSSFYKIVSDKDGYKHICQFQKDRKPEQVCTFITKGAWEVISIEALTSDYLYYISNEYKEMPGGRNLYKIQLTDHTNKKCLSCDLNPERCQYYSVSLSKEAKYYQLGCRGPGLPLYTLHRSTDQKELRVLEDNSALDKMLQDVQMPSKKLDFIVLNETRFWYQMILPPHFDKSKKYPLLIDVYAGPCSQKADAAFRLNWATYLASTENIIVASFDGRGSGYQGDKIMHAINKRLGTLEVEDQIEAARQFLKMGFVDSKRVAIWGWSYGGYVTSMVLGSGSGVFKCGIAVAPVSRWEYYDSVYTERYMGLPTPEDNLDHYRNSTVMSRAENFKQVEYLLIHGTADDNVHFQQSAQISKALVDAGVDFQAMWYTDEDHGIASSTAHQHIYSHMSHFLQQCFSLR", "experiment": "Plasma DPP4 activity, continuous fluorometric assay with Gly-Pro-AMC", "type": "in vivo", "conditions": "anesthetized male SD rats, MK-0626 1 mg/kg iv bolus, substrate Gly-Pro-AMC", "experimental": "as §1, §5"}, "[12]": {"conditions": "group MK-0626 + Saline, baseline = 20 min period prior to IV administration"}, "[13]": {"conditions": "MK-0626 1 mg/kg iv bolus followed by saline iv infusion, end of study"}, "[14]": {"conditions": "MK-0626 1 mg/kg iv bolus followed by saline iv infusion"}}}
{"molecule": "CC[C@H](C)[C@H](NC(=O)[C@H](Cc1ccccc1)NC(=O)[C@H](CCC(=O)O)NC(=O)[C@H](CCCCN)NC(=O)[C@H](C)NC(=O)[C@H](C)NC(=O)[C@H](CCC(N)=O)NC(=O)CNC(=O)[C@H](CCC(=O)O)NC(=O)[C@H](CC(C)C)NC(=O)[C@H](Cc1ccc(O)cc1)NC(=O)[C@H](CO)NC(=O)[C@H](CO)NC(=O)[C@@H](NC(=O)[C@H](CC(=O)O)NC(=O)[C@H](CO)NC(=O)[C@@H](NC(=O)[C@H](Cc1ccccc1)NC(=O)[C@@H](NC(=O)CNC(=O)[C@H](CCC(=O)O)NC(=O)[C@H](C)NC(=O)[C@@H](N)Cc1c[nH]cn1)[C@@H](C)O)[C@@H](C)O)C(C)C)C(=O)N[C@@H](C)C(=O)N[C@@H](Cc1c[nH]c2ccccc12)C(=O)N[C@@H](CC(C)C)C(=O)N[C@H](C(=O)N[C@@H](CCCCN)C(=O)NCC(=O)N[C@@H](CCCNC(=N)N)C(N)=O)C(C)C", "note": "[GLP-1, Glucagon-like peptide 1, reference compound]", "values": [{"measurement": "effect on diuresis, natriuresis, chloruresis and kaliuresis", "setting": "[1]; saline bolus followed by GLP-1 iv infusion alone (2.4, 4.8, 9.6 pmol/kg/min)", "result": "modest, albeit significant increase"}, {"measurement": "effect on RBF", "setting": "[2]; GLP-1 alone, only at the highest dose 9.6 pmol/kg/min, Figure 6c", "result": "significant effect"}, {"measurement": "effect on plasma active GLP-1 levels", "setting": "[3]; exogenous GLP-1 infusion 2.4, 4.8 and 9.6 pmol/kg/min, further enhanced after MK-0626, Figure 4", "result": "step-wise increase"}, {"measurement": "effect on GFR", "setting": "[4]; GLP-1 iv infusion alone, no dose-dependence, Figure 6a", "result": "modest increase"}]}
{"molecule": "CN(C)C(=O)[C@@H](c1ccc(-c2ccc3ncnn3c2)cc1)[C@H](N)C(=O)N1CCC(F)(F)C1.Cl", "note": "[MK-0626]", "values": [{"measurement": "Insulin, baseline", "setting": "[5]; [12]", "result": "2.5 ± 0.2", "unit": "ng/mL"}, {"measurement": "Insulin, treatment", "setting": "[5]; [13]", "result": "2.7 ± 0.1", "unit": "ng/mL"}, {"measurement": "HR, baseline", "setting": "[6]; [12]", "result": "381.2 ± 10.0", "unit": "bpm"}, {"measurement": "HR, treatment", "setting": "[6]; [14]", "result": "380.9 ± 10.3", "unit": "bpm"}, {"measurement": "plasma K+, baseline", "setting": "[7]; [12]", "result": "4.4 ± 0.14", "unit": "mmol/L"}, {"measurement": "plasma K+, treatment", "setting": "[7]; [13]", "result": "4.2 ± 0.10", "unit": "mmol/L"}, {"measurement": "Hematocrit, baseline", "setting": "[8]; [12]", "result": "40.0 ± 0.8", "unit": "%"}, {"measurement": "Hematocrit, treatment", "setting": "[8]; [13]", "result": "38.2 ± 0.6", "unit": "%"}, {"measurement": "effect on diuresis or natriuresis", "setting": "[1]; MK-0626 1 mg/kg iv bolus alone", "result": "no significant effect"}, {"measurement": "BP, baseline", "setting": "[9]; [12]", "result": "123.5 ± 3.7", "unit": "mmHg"}, {"measurement": "BP, treatment", "setting": "[9]; [14]", "result": "121.9 ± 3.9", "unit": "mmHg"}, {"measurement": "effect on RBF", "setting": "[2]; MK-0626 1 mg/kg alone, in the absence of GLP-1 administration", "result": "increased"}, {"measurement": "Glucose, baseline", "setting": "[10]; [12]", "result": "134.9 ± 6.0", "unit": "mg/dL"}, {"measurement": "Glucose, treatment", "setting": "[10]; [13]", "result": "135.8 ± 7.3", "unit": "mg/dL"}, {"measurement": "urine pH, baseline", "setting": "[11]; [12]", "result": "6.07 ± 0.17"}, {"measurement": "urine pH, treatment", "setting": "[11]; [14]", "result": "6.25 ± 0.20"}, {"measurement": "circulating GLP-1 level, baseline before MK-0626 alone", "setting": "[3]; group MK-0626 alone, baseline, ELISA, active GLP-1", "result": 3.4, "unit": "pmpol/L"}, {"measurement": "circulating GLP-1 level after MK-0626 alone", "setting": "[3]; MK-0626 1 mg/kg iv bolus alone (no exogenous GLP-1), ELISA, active GLP-1", "result": 5.5, "unit": "pmol/L"}, {"measurement": "Plasma DPP4 activity, inhibition", "setting": "DPP4", "result": "greater than 90%"}, {"measurement": "effect on GFR", "setting": "[4]; all animals that received MK-0626 1 mg/kg, not further enhanced by increasing doses of GLP-1, Figure 6b", "result": "increased"}]}
